Source: the NIST ThermoML archive (doi:10.1021/acs.jced.8b01250)
± gives the expanded uncertainty stated by the source.

Key:
[1] = Crystal; DSC
[2] = Molar enthalpy of transition or fusion; settings: Crystal; DSC

Triple point temperature [1]: 435.55 ± 1.2 K
Molar enthalpy of transition or fusion [2]: 4.59 ± 0.194 kcal/mol
SMILES: N#Cc1cccc([N+](=O)[O-])c1C#N [3-nitrophthalonitrile]
